We go through 33 compounds from patent US20230150970A1, “AMINOPYRIMIDINE DERIVATIVES AND THEIR USE AS ARYL HYDROCARBON RECEPTOR MODULATORS” (DONG-A ST CO., LTD., priority 2020, published 2023).

For the experiment, the target named is T1, AhR (Homo sapiens, UniProt P35869).
T1 sequence (P35869 11-848): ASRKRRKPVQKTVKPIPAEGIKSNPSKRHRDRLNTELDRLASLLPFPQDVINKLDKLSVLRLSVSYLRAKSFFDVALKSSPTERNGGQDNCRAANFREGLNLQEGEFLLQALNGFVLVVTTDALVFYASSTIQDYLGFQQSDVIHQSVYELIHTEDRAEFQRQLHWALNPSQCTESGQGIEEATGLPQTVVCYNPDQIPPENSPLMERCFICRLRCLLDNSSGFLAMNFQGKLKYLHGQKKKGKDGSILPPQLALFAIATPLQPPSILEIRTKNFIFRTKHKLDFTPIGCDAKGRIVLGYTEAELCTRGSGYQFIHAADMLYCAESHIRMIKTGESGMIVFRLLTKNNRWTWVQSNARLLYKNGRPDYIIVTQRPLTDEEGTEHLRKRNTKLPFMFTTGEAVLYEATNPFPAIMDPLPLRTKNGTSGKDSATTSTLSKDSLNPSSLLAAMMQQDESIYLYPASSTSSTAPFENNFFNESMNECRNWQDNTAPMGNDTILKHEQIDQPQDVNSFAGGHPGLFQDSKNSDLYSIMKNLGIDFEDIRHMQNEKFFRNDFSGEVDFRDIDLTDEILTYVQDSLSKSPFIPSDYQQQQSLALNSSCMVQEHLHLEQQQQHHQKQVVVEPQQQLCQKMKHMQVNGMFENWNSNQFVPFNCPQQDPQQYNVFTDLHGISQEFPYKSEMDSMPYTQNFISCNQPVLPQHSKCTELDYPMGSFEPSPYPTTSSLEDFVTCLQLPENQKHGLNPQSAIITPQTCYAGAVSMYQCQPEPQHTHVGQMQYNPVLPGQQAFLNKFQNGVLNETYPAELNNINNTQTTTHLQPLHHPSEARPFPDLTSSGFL
Put plainly: In Vitro Assay 1: XRE-luciferase reporter assay, antagonism in human cell line (HepG2). Conditions: Assay 1: AhR-Luc Human Antagonism (IC50, nM), values marked *: kynurenine 50 μM, 6 hours.

For orientation: IC50 means the concentration needed to halve the response being measured. Higher therefore signals lower potency. For the compound `OC[C@H]1CCCN(c2cc(-c3ccc(Cl)cc3)nc(-c3cccnc3)n2)C1` [Example 148, (S)-(1-(6-(4-chlorophenyl)-2-(pyridin-3-yl)pyrimidin-4-yl)piperidin-3-yl)methanol], the IC50 was in the range of 10 to 100 nM.

`Clc1ccc(-c2cc(NCCN3CCCCC3)nc(-c3cccnc3)n2)cc1` [Example 149, 6-(4-chlorophenyl)-N-(2-(piperidin-1-yl)ethyl)-2-(pyridin-3-yl)pyrimidin-4-amine] returned an IC50 above 1000 nM.

`N#CC1CCN(c2cc(-c3ccc(Cl)cc3)nc(-c3cccnc3)n2)CC1` [Example 150, 1-(6-(4-chlorophenyl)-2-(pyridin-3-yl)pyrimidin-4-yl)piperidine-4-carbonitrile] came in with an IC50 below 10 nM.

In turn, `OC1(c2cccc(C(F)(F)F)c2)CCN(c2cc(-c3ccc(Cl)cc3)nc(-c3cccnc3)n2)CC1` [Example 151, 1-(6-(4-chlorophenyl)-2-(pyridin-3-yl)pyrimidin-4-yl)-4-(3-(trifluoromethyl)phenyl)piperidin-4-ol] yielded a half-maximal inhibitory concentration (IC50) above 1000 nM.

For the compound `Clc1ccc(-c2cc(N3CCC(N4CCCC4)CC3)nc(-c3cccnc3)n2)cc1` [Example 152, 4-(4-chlorophenyl)-2-(pyridin-3-yl)-6-(4-(pyrrolidin-1-yl)piperidin-1-yl)pyrimidine], the 50% inhibitory concentration (IC50) fell in the range of 100 to 1000 nM.

Compound `OC1(c2ccc(Cl)cc2)CCN(c2cc(-c3ccc(Cl)cc3)nc(-c3cccnc3)n2)CC1` [Example 153, 4-(4-chlorophenyl)-1-(6-(4-chlorophenyl)-2-(pyridin-3-yl)pyrimidin-4-yl)piperidin-4-ol] returned an IC50 above 1000 nM.

As to `CC(=O)C1(c2ccccc2)CCN(c2cc(-c3ccc(Cl)cc3)nc(-c3cccnc3)n2)CC1` [Example 155, 1-(1-(6-(4-chlorophenyl)-2-(pyridin-3-yl)pyrimidin-4-yl)-4-phenylpiperidin-4-yl)ethan-1-one], the IC50 is above 1000 nM.

In the case of `Clc1ccc(-c2cc(N3CCC(N4CCOCC4)CC3)nc(-c3cccnc3)n2)cc1` [Example 156, 4-(1-(6-(4-chlorophenyl)-2-(pyridin-3-yl)pyrimidin-4-yl)piperidin-4-yl)morpholine], the IC50 was below 10 nM.

`Clc1ccc(-c2cc(N3CCC(c4cc(Cl)cc(Cl)c4)CC3)nc(-c3cccnc3)n2)cc1` [Example 157, 4-(4-chlorophenyl)-6-(4-(3,5-dichlorophenyl)piperidin-1-yl)-2-(pyridin-3-yl)pyrimidine] showed a half-maximal inhibitory concentration (IC50) above 1000 nM.

Consider `Clc1ccc(-c2cc(NCC3CCCN(C4CCCCC4)C3)nc(-c3cccnc3)n2)cc1` (stereo not drawn) [Example 158, 6-(4-chlorophenyl)-N-((1-cyclohexylpiperidin-3-yl)methyl)-2-(pyridin-3-yl)pyrimidin-4-amine], for which the half-maximal inhibitory concentration (IC50) is 100 to 1000 nM.

Turning to `Clc1ccc(-c2cc(NCC3CCN(Cc4ccccc4)CC3)nc(-c3cccnc3)n2)cc1` [Example 159, N-((1-benzylpiperidin-4-yl)methyl)-6-(4-chlorophenyl)-2-(pyridin-3-yl)pyrimidin-4-amine], the IC50 was in the range of 100 to 1000 nM.

The compound `CCOC(=O)CC(=O)C1CCN(c2cc(-c3ccc(Cl)cc3)nc(-c3cccnc3)n2)CC1` [Example 160, ethyl 3-(1-(6-(4-chlorophenyl)-2-(pyridin-3-yl)pyrimidin-4-yl)piperidin-4-yl)-3-oxopropanoate] gave an IC50 above 1000 nM.

For `CCOC(=O)CC1CCN(c2cc(-c3ccc(Cl)cc3)nc(-c3cccnc3)n2)CC1` [Example 161, ethyl 2-(1-(6-(4-chlorophenyl)-2-(pyridin-3-yl)pyrimidin-4-yl)piperidin-4-yl)acetate], the IC50 was above 1000 nM.

Consider `O[C@H]1CCCN(c2cc(-c3ccc(Cl)cc3)nc(-c3cccnc3)n2)C1` [Example 163, (S)-1-(6-(4-chlorophenyl)-2-(pyridin-3-yl)pyrimidin-4-yl)piperidin-3-ol], for which the IC50 lay within 10 to 100 nM.

`CN(C)C1CCN(c2cc(-c3ccc(Cl)cc3)nc(-c3cccnc3)n2)C1` (stereo not drawn) [Example 164, 1-(6-(4-chlorophenyl)-2-(pyridin-3-yl)pyrimidin-4-yl)-N,N-dimethylpyrrolidin-3-amine] displayed an IC50 of 100 to 1000 nM.

`CN(C)CCC1CCCN1c1cc(-c2ccc(Cl)cc2)nc(-c2cccnc2)n1` (stereo not drawn) [Example 165, 2-(1-(6-(4-chlorophenyl)-2-(pyridin-3-yl)pyrimidin-4-yl)pyrrolidin-2-yl)-N,N-dimethylethan-1-amine] showed an IC50 above 1000 nM.

In the case of `O=C1CCN(c2cc(-c3ccc(Cl)cc3)nc(-c3cccnc3)n2)CC1` [Example 166, 1-(6-(4-chlorophenyl)-2-(pyridin-3-yl)pyrimidin-4-yl)piperidin-4-one], the IC50 was 10 to 100 nM.

On to `CN(c1cc(-c2ccc(Cl)cc2)nc(-c2cccnc2)n1)C1CCNCC1` [Example 167, 6-(4-chlorophenyl)-N-methyl-N-(piperidin-4-yl)-2-(pyridin-3-yl)pyrimidin-4-amine], for which the IC50 was above 1000 nM.

`CN1CCCCC1CCNc1cc(-c2ccc(Cl)cc2)nc(-c2cccnc2)n1` (stereo not drawn) [Example 168, 6-(4-chlorophenyl)-N-(2-(1-methylpiperidin-2-yl)ethyl)-2-(pyridin-3-yl)pyrimidin-4-amine] showed an IC50 above 1000 nM.

With `CC(Nc1cc(-c2ccc(Cl)cc2)nc(-c2cccnc2)n1)C1CCN(C)CC1` (stereo not drawn) [Example 169, 6-(4-chlorophenyl)-N-(1-(1-methylpiperidin-4-yl)ethyl)-2-(pyridin-3-yl)pyrimidin-4-amine], the IC50 was above 1000 nM.

`COC(=O)CN1CCC(Nc2cc(-c3ccc(Cl)cc3)nc(-c3cccnc3)n2)CC1` [Example 171, methyl 2-(4-((6-(4-chlorophenyl)-2-(pyridin-3-yl)pyrimidin-4-yl)amino)piperidin-1-yl)acetate] came in with an IC50 of 10 to 100 nM.

The compound `CC(OC(=O)C(F)(F)F)C1CCN(c2cc(-c3ccc(Cl)cc3)nc(-c3cccnc3)n2)CC1` (stereo not drawn) [Example 172, 1-(1-(6-(4-chlorophenyl)-2-(pyridin-3-yl)pyrimidin-4-yl)piperidin-4-yl)ethyl 2,2,2-trifluoroacetate] came in with an IC50 below 10 nM.

Turning to `CN1CCCC(Nc2cc(-c3ccc(Cl)cc3)nc(-c3cccnc3)n2)C1` (stereo not drawn) [Example 173, 6-(4-chlorophenyl)-N-(1-methylpiperidin-3-yl)-2-(pyridin-3-yl)pyrimidin-4-amine], the IC50 is 100 to 1000 nM.

The compound `Cn1cc(-c2nc(N[C@@H]3CCC[C@@H]3O)cc(-c3ccc(Cl)cc3)n2)cn1` [Example 174, (1S,2R)-2-((6-(4-chlorophenyl)-2-(1-methyl-1H-pyrazol-4-yl)pyrimidin-4-yl)amino)cyclopentan-1-ol] yielded an IC50 of 100 to 1000 nM.

For `Cn1cc(-c2nc(-c3ccc(Cl)cc3)cc(N3CCC[C@@H](O)C3)n2)cn1` [Example 175, (R)-1-(6-(4-chlorophenyl)-2-(1-methyl-1H-pyrazol-4-yl)pyrimidin-4-yl)piperidin-3-ol], the IC50 was 10 to 100 nM.

Consider `Cn1cc(-c2nc(-c3ccc(Cl)cc3)cc(N3CCC(O)CC3)n2)cn1` [Example 176, 1-(6-(4-chlorophenyl)-2-(1-methyl-1H-pyrazol-4-yl)pyrimidin-4-yl)piperidin-4-ol], for which the IC50 is above 1000 nM.

Compound `Cn1cc(-c2nc(-c3ccc(Cl)cc3)cc(N3CCC(CO)CC3)n2)cn1` [Example 177, (1-(6-(4-chlorophenyl)-2-(1-methyl-1H-pyrazol-4-yl)pyrimidin-4-yl)piperidin-4-yl)methanol] displayed an IC50 of 10 to 100 nM.

`Cn1cc(-c2nc(-c3ccc(Cl)cc3)cc(N3CCC(CCO)CC3)n2)cn1` [Example 178, 2-(1-(6-(4-chlorophenyl)-2-(1-methyl-1H-pyrazol-4-yl)pyrimidin-4-yl)piperidin-4-yl)ethan-1-ol] registered an IC50 of 100 to 1000 nM.

In turn, `Cn1cc(-c2nc(-c3ccc(Cl)cc3)cc(N3CCC(CCCO)CC3)n2)cn1` [Example 179, 3-(1-(6-(4-chlorophenyl)-2-(1-methyl-1H-pyrazol-4-yl)pyrimidin-4-yl)piperidin-4-yl)propan-1-ol] returned a 50% inhibitory concentration (IC50) of 100 to 1000 nM.

As to `CC1CCN(c2cc(-c3ccc(Cl)cc3)nc(-c3cnn(C)c3)n2)CC1` [Example 180, 4-(4-chlorophenyl)-2-(1-methyl-1H-pyrazol-4-yl)-6-(4-methylpiperidin-1-yl)pyrimidine], the IC50 was above 1000 nM.

`CN1CCN(c2cc(-c3ccc(Cl)cc3)nc(-c3cnn(C)c3)n2)CC1` [Example 181, 4-(4-chlorophenyl)-2-(1-methyl-1H-pyrazol-4-yl)-6-(4-methylpiperazin-1-yl)pyrimidine]: the IC50 was in the range of 100 to 1000 nM.

Compound `Cn1cc(-c2nc(-c3ccc(Cl)cc3)cc(N3CCN(CCO)CC3)n2)cn1` [Example 182, 2-(4-(6-(4-chlorophenyl)-2-(1-methyl-1H-pyrazol-4-yl)pyrimidin-4-yl)piperazin-1-yl)ethan-1-ol] returned an IC50 of 100 to 1000 nM.

Compound `Cn1cc(-c2nc(-c3ccc(Cl)cc3)cc(N3CC[C@H](O)C3)n2)cn1` [Example 183, (S)-1-(6-(4-chlorophenyl)-2-(1-methyl-1H-pyrazol-4-yl)pyrimidin-4-yl)pyrrolidin-3-ol] returned an IC50 of 100 to 1000 nM.
